# Where two headings read alike, the source gives them in different places.
# What was measured:
# [1] = test system: arthritis model induced by collagen; conditions: oral, two consecutive weeks
# [2] = test system: arthritis model induced by adjuvant; assay: Pharmacodynamic test of an arthritis model induced by adjuvant on rats; type: in vivo, female Lewis rat; conditions: oral; for AUC (%): two consecutive weeks; for arthritis inhibitory activity and dose-effect relationship: 1, 3 and 10 mpk
# [3] = target: JAK2 protein kinase (Homo sapiens, UniProt O60674); assay: biochemical; conditions: 12 uM ATP, 60 min;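 further: recombinant human JAK2 with ULight-labelled JAK-1(Tyr1023) peptide substrate, phosphorylation detected by TR-FRET using Eu-labelled anti-phosphotyrosine antibody, 1% DMSO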
# Description: (§1) Recombinant humanized JAK1, JAK2 and JAK3 protease were all purchased from Life technology. LANCE Ultra ULight™-JAK-1(Tyr1023) peptide and LANCE Eu-W1024 Anti-phosphotyrosine (PT66) were both purchased from PerkinElmer. Envision (PerkinElmer) was used to read a plate.
# (§2) The reading was converted into a suppression ratio as follow equation: (%)=(Min−Ratio)/(Max−Min)*100%.
# [4] = target: T1, JAK3 (Homo sapiens, UniProt P52333); assay: In vitro activity test of JAK3 kinase (LANCE Ultra TR-FRET); type: biochemical;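 further: recombinant human JAK3 phosphorylating ULight-JAK-1(Tyr1023) peptide at 4 µM ATP, with 1% DMSO, detected by Eu-anti-phosphotyrosine TR-FRET on Envision and converted to percent inhibition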
# T1 construct: purchased Life technology
# T1 sequence (P52333 1-1124): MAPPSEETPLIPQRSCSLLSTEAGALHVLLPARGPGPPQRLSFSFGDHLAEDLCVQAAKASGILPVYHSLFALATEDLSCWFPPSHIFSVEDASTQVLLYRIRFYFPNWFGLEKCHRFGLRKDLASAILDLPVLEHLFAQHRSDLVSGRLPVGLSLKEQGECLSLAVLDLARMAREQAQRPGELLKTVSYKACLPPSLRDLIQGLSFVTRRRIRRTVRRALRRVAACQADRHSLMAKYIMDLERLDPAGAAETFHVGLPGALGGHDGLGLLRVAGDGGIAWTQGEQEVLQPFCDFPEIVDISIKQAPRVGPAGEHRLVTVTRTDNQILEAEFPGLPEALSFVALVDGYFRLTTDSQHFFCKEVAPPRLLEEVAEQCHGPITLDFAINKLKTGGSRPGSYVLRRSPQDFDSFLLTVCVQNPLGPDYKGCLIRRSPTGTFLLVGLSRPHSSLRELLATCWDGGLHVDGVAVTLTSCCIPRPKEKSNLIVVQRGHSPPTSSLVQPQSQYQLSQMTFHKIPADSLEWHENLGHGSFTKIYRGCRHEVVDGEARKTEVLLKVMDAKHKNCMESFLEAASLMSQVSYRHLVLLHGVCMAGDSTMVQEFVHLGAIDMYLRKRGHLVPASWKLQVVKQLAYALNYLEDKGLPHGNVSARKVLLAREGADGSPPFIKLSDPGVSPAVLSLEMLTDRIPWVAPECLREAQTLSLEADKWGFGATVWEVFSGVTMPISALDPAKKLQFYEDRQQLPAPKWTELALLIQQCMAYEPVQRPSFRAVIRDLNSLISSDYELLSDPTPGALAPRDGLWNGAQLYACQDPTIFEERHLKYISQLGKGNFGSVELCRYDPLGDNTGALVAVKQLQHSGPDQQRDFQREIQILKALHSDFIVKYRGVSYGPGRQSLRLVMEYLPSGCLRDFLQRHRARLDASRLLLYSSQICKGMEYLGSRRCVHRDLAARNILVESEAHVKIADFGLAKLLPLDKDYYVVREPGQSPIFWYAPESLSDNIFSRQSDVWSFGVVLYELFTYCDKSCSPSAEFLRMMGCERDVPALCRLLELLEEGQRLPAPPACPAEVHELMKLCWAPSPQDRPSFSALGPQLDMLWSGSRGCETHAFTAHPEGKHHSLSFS
# Description: as §1
# 0.05 nM protein kinase, 50 nM LANCE Ultra ULight™-JAK-1(Tyr1023) peptide, 4 uM ATP, 50 mM HEPES (pH7.5), 10 mM MgCl2, 1 mM EGTA, 2 mM DTT, and 0.01% BRIJ-35.
# as §2
# [5] = target: JAK1 protein kinase (Homo sapiens, UniProt P23458); assay: biochemical; conditions: 38 uM ATP, 90 min
# Description: In Vitro Activity Test of Jak1, Jak 2 and Jak 3 Kinase
# Recombinant humanized JAK1, JAK2 and JAK3 […] were all purchased from Life technology. LANCE Ultra ULight™-JAK-1(Tyr1023) peptide and LANCE Eu-W1024 Anti-phosphotyrosine (PT66) were both purchased from PerkinElmer. Envision (PerkinElmer) was used to read a plate.
# Three dilution of a test compound was prepared, and 11 final concentrations were obtained: 10 uM to 0.17 nM. Each concentration had two repeat wells. The content of DMSO in a detection reaction was 1%.
# 2 nM JAK1 protein kinase, 50 nM LANCE Ultra ULight™-JAK-1(Tyr1023) peptide, 38 uM ATP, 50 mM HEPES (pH7.5), 10 mM MgCl2, 1 mM EGTA, 2 mM DTT, and 0.01% BRIJ-35. Detection plate was White Proxiplate 384-Plus plate (PerkinElmer), the reaction was conducted for 90 min at room temperature, and reaction system was 10 ul.
# 10 ul detection reagent was added into the reaction plate, wherein the final concentration of LANCE Eu-W1024 Anti-phosphotyrosine (PT66) was 2 nM, the final concentration of EDTA was 10 mM, incubation was conducted for 60 min at room temperature, and the plate was read by the Envision.
# The reading was converted into a suppression ratio as follow equation: (%)=([…])/(Max−Min)*100%. IC50 data was detected by 4 parametric curve fitting (Model 205 in XLFIT5, iDBS), see Table 1.
# [6] = Pharmacokinetics (PK) test in rats; type: in vivo; conditions: for AUC(0-inf) / AUC(0-t) / half-life / Vd / Cmax / Tmax / bioavailability: rat, plasma; for Vd: intravenous, read-out: Vdss; for Cmax / Tmax / bioavailability: oral
# [7] = Pharmacokinetics (PK) test in mice; type: in vivo, male DBA/1 mice; conditions: for AUC(0-inf) / AUC(0-t) / half-life / Vd / Cmax / Tmax / bioavailability: male, DBA/1, mouse, plasma; for half-life: caudal vein injection and gavage; for Vd: read-out: Vdss; for Cmax / Tmax / bioavailability: oral
# JAK2 protein kinase, sequence (O60674 whole entry): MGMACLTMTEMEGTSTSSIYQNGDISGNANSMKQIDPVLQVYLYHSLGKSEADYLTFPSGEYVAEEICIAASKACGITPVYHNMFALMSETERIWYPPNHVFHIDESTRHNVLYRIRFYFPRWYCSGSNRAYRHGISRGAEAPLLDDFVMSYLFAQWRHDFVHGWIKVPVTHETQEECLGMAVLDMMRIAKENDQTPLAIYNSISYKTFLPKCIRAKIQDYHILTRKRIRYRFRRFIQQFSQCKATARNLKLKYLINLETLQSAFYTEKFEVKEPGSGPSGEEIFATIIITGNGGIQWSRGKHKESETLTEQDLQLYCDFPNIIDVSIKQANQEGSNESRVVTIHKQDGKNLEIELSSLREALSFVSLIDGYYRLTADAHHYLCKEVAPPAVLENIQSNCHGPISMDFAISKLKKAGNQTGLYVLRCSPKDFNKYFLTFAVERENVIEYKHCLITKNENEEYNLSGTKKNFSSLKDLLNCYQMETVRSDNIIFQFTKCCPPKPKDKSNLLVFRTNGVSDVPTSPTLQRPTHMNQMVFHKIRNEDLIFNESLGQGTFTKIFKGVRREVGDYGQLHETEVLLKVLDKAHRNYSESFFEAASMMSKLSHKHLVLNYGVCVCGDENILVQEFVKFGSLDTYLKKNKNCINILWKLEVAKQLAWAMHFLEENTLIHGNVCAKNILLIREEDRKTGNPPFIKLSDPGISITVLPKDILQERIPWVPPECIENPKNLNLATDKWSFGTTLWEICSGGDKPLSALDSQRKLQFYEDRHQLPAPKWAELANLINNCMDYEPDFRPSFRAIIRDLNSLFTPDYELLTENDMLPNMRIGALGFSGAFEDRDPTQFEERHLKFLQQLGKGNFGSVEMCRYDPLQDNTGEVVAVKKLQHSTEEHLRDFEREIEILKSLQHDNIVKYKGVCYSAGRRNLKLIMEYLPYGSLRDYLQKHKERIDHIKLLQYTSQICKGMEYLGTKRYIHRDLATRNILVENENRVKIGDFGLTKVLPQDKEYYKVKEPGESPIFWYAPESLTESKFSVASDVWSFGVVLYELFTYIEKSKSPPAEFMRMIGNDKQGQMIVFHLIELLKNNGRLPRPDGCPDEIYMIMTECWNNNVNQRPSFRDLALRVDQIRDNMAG
# JAK1 protein kinase, sequence (P23458 whole entry): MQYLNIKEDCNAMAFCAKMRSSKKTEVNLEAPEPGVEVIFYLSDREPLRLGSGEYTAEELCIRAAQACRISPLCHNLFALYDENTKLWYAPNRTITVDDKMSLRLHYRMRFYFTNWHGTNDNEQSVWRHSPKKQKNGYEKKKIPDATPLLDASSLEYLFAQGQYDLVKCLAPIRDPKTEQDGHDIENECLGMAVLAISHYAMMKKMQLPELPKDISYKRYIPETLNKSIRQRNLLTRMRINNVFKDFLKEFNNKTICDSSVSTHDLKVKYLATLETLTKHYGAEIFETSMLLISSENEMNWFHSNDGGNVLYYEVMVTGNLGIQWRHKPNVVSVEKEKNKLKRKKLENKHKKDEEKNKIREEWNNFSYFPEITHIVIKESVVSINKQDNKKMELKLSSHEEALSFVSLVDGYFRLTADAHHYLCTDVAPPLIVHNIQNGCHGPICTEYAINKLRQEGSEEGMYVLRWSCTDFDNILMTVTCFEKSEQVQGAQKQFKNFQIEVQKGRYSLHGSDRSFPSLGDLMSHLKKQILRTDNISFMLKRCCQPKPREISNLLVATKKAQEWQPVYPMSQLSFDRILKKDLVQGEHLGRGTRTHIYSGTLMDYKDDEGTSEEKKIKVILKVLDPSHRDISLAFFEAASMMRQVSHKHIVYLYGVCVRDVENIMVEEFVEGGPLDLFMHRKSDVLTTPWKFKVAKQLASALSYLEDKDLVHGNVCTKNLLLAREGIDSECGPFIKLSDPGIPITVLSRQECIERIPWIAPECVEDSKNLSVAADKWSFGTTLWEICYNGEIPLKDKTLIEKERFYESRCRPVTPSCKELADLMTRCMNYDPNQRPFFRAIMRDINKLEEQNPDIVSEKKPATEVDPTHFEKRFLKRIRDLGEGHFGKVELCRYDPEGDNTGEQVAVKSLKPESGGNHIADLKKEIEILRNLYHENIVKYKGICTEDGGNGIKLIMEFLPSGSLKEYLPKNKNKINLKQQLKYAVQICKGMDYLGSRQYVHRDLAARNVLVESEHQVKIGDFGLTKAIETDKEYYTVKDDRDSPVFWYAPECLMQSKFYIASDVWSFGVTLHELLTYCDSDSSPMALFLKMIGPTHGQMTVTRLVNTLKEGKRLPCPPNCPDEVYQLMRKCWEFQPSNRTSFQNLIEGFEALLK
Structure (SMILES),AUC (%) ([1]; 15 mg/kg),AUC (%) ([2]; 1 mg/kg),AUC (%) ([2]; 3 mg/kg),AUC (%) ([2]; 10 mg/kg),IC50 [3],IC50 [4],IC50 [5],C1 [6],oral bioavailability and exposed quantity [6],AUC(0-inf) [6],AUC(0-t) [6],half-life [6],Vd [6],Cmax [6],Tmax [6],bioavailability [6],C1 [7],oral bioavailability and exposed quantity [7],AUC(0-inf) [7],AUC(0-t) [7],other results
"C[C@@H]1CCN(C(=O)CC#N)C[C@@H]1N(C)c1ncnc2[nH]ccc12 [Tofacitinib, reference compound]",34%,19.8%,41.6%,49.2%,,,,,,,,,,,,,,,,,
CN(c1ncnc2[nH]ccc12)N1CCCC(C(=O)NCC(F)(F)F)C1 (stereo not shown) [WX04],29%,,,,10 to 100 nM,10 to 100 nM,< 10 nM,,,,,,,,,,,,,,AUC (%) ([1]; 30 mg/kg): 27%
"CN(c1ncnc2[nH]ccc12)N1CCC[C@@H](C(=O)NCC(F)(F)F)C1 (single isomer, unassigned) [WX05, (R or S)-1-[methyl(7H pyrrolo[2,3-d]pyrimidin-4-yl)amino]-N-(2,2,2-trifluoroethyl)piperidyl-3-formamide]",31%,,,,10 to 100 nM,< 10 nM,< 10 nM,13.1 mL/min/kg,excellent good oral bioavailability and higher exposed quantity,11.5 µM·h,11.2 µM·h,91.8 min,1.49 L/kg,3690 nM,60 min,64.4%,57.2 mL/min/kg,excellent good oral bioavailability and higher exposed quantity,0.667 µM·h,0.664 µM·h,half-life ([7]; intravenous): 30.9 min; Vd ([7]; intravenous): 0.959 L/kg; Cmax [7]: 1230 nM; Tmax [7]: 15 min; bioavailability [7]: 27%
"CN(c1ncnc2[nH]ccc12)N1CCCC(C(=O)NCC(F)(F)F)C1 (single isomer, unassigned) [WX06, (S or R)-1-[methyl(7H pyrrolo[2,3-d]pyrimidin-4-yl)amino]-N-(2,2,2-trifluoroethyl)piperidyl-3-formamide]",30.3%,,,,> 1000 nM,> 1000 nM,100 to 1000 nM,,,,,,,,,,,,,,
"O=C(Nc1nc2cccc(-c3ccc(CN4CCS(=O)(=O)CC4)cc3)n2n1)C1CC1 [Filgotinib, reference compound]",39.9%,,7.9%,,,,,,,,,,,,,,,,,,
"CN(c1ncnc2[nH]ccc12)N1CCC[C@@H](C(=O)NCC#N)C1 (single isomer, unassigned) [WX08, (R or S)—N-(cyanomethyl-1-[methyl(7H-pyrrolo[2,3-d]pyrimidin-4-yl)amino]piperidyl)-3-formamide]",,13.6%,33.4%,49.2%,< 10 nM,< 10 nM,< 10 nM,27.1 mL/min/kg,excellent good oral bioavailability and higher exposed quantity,6.5 µM·h,6.36 µM·h,56.9 min,1.51 L/kg,2460 nM,30 min,61%,26.7 mL/min/kg,excellent good oral bioavailability and higher exposed quantity,3.03 µM·h,3 µM·h,arthritis inhibitory activity and dose-effect relationship [2]: good dose-effect relationship and generated arthritis inhibitory activity that was more effective than Filgotinib; Vd ([7]; intravenous): 0.619 L/kg; Cmax [7]: 2440 nM; Tmax [7]: 15 min; bioavailability [7]: 50.7%; half-life ([7]; po): 37.4 min
"CN(c1ncnc2[nH]ccc12)N1CCCC(C(=O)NCC#N)C1 (stereo not shown) [WX07, N-(cyanomethyl)-1-[methyl(7H-pyrrolo[2,3-d]pyrimidin-4-yl)amino]piperidyl-3-formamide]",52.2%,1.5%,20.4%,44.7%,10 to 100 nM,< 10 nM,< 10 nM,31.8 mL/min/kg,excellent good oral bioavailability and higher exposed quantity,5.75 µM·h,5.68 µM·h,70.8 min,1.76 L/kg,3250 nM,20 min,68.6%,21.3 mL/min/kg,excellent good oral bioavailability and higher exposed quantity,2.48 µM·h,2.33 µM·h,arthritis inhibitory activity and dose-effect relationship [2]: good dose-effect relationship and arthritis inhibitory activity equivalent to Tofacitinib; Vd ([7]; intravenous): 0.846 L/kg; Cmax [7]: 2290 nM; Tmax [7]: 30 min; bioavailability [7]: 32.9%; half-life ([7]; po): 81 min

# — patent US10617690B2 (priority 2015, dated 2020)
